# “Also recorded” adds a separate entry of the source.
# Assays:
# CNV lesions = experiment: Laser injury CNV model, CNV size in choroidal flat mounts; assay type: in vivo, Brown-Norway rats; conditions: rats
# Excerpt: For reverse transcription polymerase chain reaction (RT-PCR) detection and immunofluorescence staining of CB in the choroid, Lewis rats (8-10 weeks old, Charles River Laboratories, Inc., Wilmington, Mass.) were used. To generate CNV in the laser injury model, Brown-Norway rats (10-12 weeks old, Charles River Laboratories, Inc., Wilmington, Mass.) were used. Rats were housed in plastic cages in a climate controlled animal facility and were fed laboratory chow and water ad libitum. All animal experiments were conducted in accordance with the ARVO Statement for the Use of Animals in Ophthalmic and Vision Research.
# Lewis rats were euthanized by overdose anesthesia and perfused with PBS (500 ml/kg body weight (BW)). Eyes were immediately enucleated and the retinal pigment epithelium (RPE)-choroid complex was obtained from the rat eyes and homogenized in extraction reagent (TRIzol Reagent; Invitrogen, Carlsbad, Calif.). […] PCR products were analyzed by electrophoresis in a 1.5% agarose gel and stained with ethidium bromide ([…]). The expected sizes of the amplified cDNA fragments of CB and GAPDH were 341 bp and 387 bp, respectively Band densities were quantified using NIH Image 1.41 software (available by ftp from zippy.nimh.nih.gov/or from the web site, rsb info.nih.gov/nih-image: developed by Wayne Rasband, National Institutes of Health, Bethesda, Md.). […]
# [1] = tested on: ED-1-positive cells in the CNV lesions; experiment: Quantification of macrophage infiltration into CNV lesions; assay type: in vivo, Brown-Norway rats
# Method: (§1) To block CB, a specific CBD, Compound 11 described above, was used (R-tech Ueno, Ltd., Tokyo, Japan). After laser injury, the inhibitor (0.3 mg/kg BW) was administered to the animals by daily i.p. injections. As a control, some animals received the same regimen for the vehicle solution alone.
# At 1, 3, and 7 days after laser injury and treatment with either CBD or vehicle solution, animals were perfused with 200 ml of PBS/kg BW under deep anesthesia. Subsequently, eyes were enucleated and fixed overnight with 4% PFA, and 10 μm frozen sections of the posterior segment, including the center portion of CNV lesions (6 lesions per eye), were prepared and pre-blocked (PBS containing 10% goat serum, 0.5% gelatin, 3% BSA, and 0.2% Tween 20). […] The photographs of CNV lesions were taken, and the numbers of ED-1-positive cells were counted. To obtain a quantitative index of macrophage numbers in CNV lesions, an optical density plot of the selected area was generated by a histogram graphing tool in the Photoshop imageanalysis software (version 6.0: Adobe Systems, Mountain View, Calif.), as described in the literature (for example, Sakurai et al. (2003) IOVS 44: 3578-85). […]
# TNF-α = experiment: ELISA of RPE-choroid complex after laser injury: TNF-α; assay type: in vivo, rat; conditions: laser-treated animals, 3 days after laser injury; 0.3 mg/kg BW daily i.p.
# Method: as §1
# (§2) The RPE-choroid complex was carefully isolated from eyes 3 days after photocoagulation and placed in 300 μl of lysis buffer supplemented with protease inhibitors and sonicated. The lysate was centrifuged at 15,000 rpm for 15 minutes at 4° C. and the levels of TNF-α, monocyte chemotactic protein (MCP)-1, and intercellular adhesion molecule (ICAM)-1 were determined with rat TNF-α (BI) bioscience), MCP-1 (BD bioscience) and ICAM-1 (R&D Systems, Minneapolis, Minn.) enzyme-linked immunosorbent assay (ELISA) kits according to the manufacturers' protocols. Total protein concentration was determined using a Bio-Rad Protein Assay Kit (Bio-Rad Laboratories Hercules, Calif.) and dilutions of bovine serum albumin (Bio-Rad Laboratories) as standards.
# ICAM-1 = experiment: ELISA of RPE-choroid complex after laser injury: ICAM-1; assay type: in vivo, rat; conditions: laser-treated animals, 3 days after laser injury; 0.3 mg/kg BW daily i.p.
# Method: as §1, §2
smiles,measurement,setting,value
CC(=O)Nc1nc(CCc2ccc(NC(=N)NN)cc2)c(Cc2ccc(S(C)(=O)=O)cc2)s1 [Compound II],effect on CNV / CNV size (in words),CNV lesions,significantly decreased; also recorded: effectively suppresses CNV
same,reduction of number of accumulated macrophages,"[1]; 3 days after laser injury, 0.3 mg/kg BW daily i.p., n=4, p<0.05",41%
same,effect on accumulation of macrophages in the CNV lesions (in words),"[1]; laser injury model, rats",significantly decreased
same,protein level of TNF-α in the RPE-choroid complex,TNF-α,360 ± 12 pg/mg
same,protein level of ICAM-1 in the RPE-choroid complex,ICAM-1,57 ± 2 ng/mg

# Source: patent publication US20220079889A1, “USE OF CANNABANOIDS IN THE TREATMENT OF PROLIFERATIVE DIABETIC RETINOPATHY” (VERDANT PHARMACEUTICALS, LLC, priority 2020, published 2022)
